From ChEMBL document CHEMBL5346920, “Development of the "hidden" multi-target-directed ligands by AChE/BuChE for the treatment of Alzheimer's disease” (Eur J Med Chem, 2023)
The source made the active and inactive calls. The calls are words filed in the database; no cut-off is given here.

Key:
[1] = target: Cholinesterase (Equus caballus) (UniProt P81908); experiment: Reversible inhibition of equine serum BuChE assessed as enzyme activity using butyrylthiocholine chloride as substrate measured after dilution to 0.1XIC50 for 240 mins by Ellman's method; format: cell-free; design: scale not given: the % may be the effect or the level left
[2] = target: Acetylcholinesterase (Electrophorus electricus) (UniProt O42275); experiment: Reversible inhibition of electric eel AChE assessed as enzyme activity using acetylthiocholine iodide as substrate measured after dilution to 0.1XIC50 for 120 mins by Ellman's method; design: scale not given: the % may be the effect or the level left
[3] = target: T1, Amine oxidase [flavin-containing] B (Homo sapiens, UniProt P27338); experiment: Inhibition of human recombinant MAO-B expressed in baculovirus-infected BTI cells using kynuramine as substrate incubated for 30 mins by fluorescence based analysis
T1 sequence (P27338 whole entry): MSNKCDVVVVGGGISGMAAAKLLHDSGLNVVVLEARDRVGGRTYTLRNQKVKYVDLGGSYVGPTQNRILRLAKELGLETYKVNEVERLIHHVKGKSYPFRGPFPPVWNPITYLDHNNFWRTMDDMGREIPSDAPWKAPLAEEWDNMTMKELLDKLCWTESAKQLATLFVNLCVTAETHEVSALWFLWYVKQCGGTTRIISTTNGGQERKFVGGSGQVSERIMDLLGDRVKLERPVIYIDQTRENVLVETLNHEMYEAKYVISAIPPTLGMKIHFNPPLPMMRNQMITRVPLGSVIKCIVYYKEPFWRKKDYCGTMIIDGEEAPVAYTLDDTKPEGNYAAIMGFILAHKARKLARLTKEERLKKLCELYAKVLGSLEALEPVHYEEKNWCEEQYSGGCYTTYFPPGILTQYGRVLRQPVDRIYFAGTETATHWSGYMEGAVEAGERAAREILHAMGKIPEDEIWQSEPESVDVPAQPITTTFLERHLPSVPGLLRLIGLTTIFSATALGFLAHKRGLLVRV

[4] = species: Homo sapiens; experiment: Selectivity index, ratio of IC50 for inhibition of human recombinant MAO-A expressed in baculovirus-infected BTI cells to IC50 for inhibition of human recombinant MAO-B expressed in baculovirus-infected BTI cells
[5] = target: T2, Amine oxidase [flavin-containing] A (Homo sapiens, UniProt P21397); experiment: Inhibition of human recombinant MAO-A expressed in baculovirus-infected BTI cells using kynuramine as substrate incubated for 30 mins by fluorescence based analysis
T2 sequence (P21397 whole entry): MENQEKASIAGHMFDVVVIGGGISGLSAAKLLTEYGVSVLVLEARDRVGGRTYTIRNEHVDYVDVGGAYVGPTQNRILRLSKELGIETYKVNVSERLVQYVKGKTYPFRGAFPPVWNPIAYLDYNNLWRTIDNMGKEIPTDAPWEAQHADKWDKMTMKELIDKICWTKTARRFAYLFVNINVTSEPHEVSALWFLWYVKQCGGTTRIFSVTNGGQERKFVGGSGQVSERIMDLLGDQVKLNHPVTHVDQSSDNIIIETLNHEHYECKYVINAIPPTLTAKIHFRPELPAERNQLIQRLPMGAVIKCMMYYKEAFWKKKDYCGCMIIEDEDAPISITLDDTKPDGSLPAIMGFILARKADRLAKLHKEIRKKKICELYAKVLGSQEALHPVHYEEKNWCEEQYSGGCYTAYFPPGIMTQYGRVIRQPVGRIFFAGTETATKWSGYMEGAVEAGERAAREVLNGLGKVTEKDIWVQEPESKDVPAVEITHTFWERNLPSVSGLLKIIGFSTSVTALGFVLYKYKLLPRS

[6] = tested on: PC-12; experiment: Neuroprotective activity against Amyloid beta(25 to 35)-induced cell injury in rat PC12 cells assessed as increase in cell viability pretreated for 2 hrs followed by incubation with Abeta(25 to 35) for 24 hrs by CCK-8 assay; format: functional, cell-based; settings: dose 5-20 µM, time 26.0 hrs
[7] = tested on: PC-12; experiment: Cytotoxicity against rat PC-12 cells assessed as cell viability at 40 uM by CCK-8 assay; format: toxicity, cell-based; settings: pc-12, 40 µM
[8] = Selectivity index, ratio of IC50 for inhibition of electric eel AChE to IC50 for inhibition of equine serum BuChE
[9] = tested on: BV-2; experiment: Anti-inflammatory activity against LPS-stimulated mouse BV-2 cells assessed as inhibition of LPS-induced IL-6 production incubated for 24 hrs in presence of LPS; format: functional, cell-based; settings: dose 1-9 µM
[10] = tested on: BV-2; experiment: Anti-inflammatory activity against LPS-stimulated mouse BV-2 cells assessed as inhibition of LPS-induced IL-1 beta production incubated for 24 hrs in presence of LPS; format: functional, cell-based; settings: dose 1-9 µM
[11] = target: Acetylcholinesterase (Electrophorus electricus, UniProt O42275); experiment: Inhibition of electric eel AChE using acetylthiocholine chloride as substrate by Ellman's method
[12] = target: Cholinesterase (Equus caballus, UniProt P81908); experiment: Inhibition of equine serum BuChE using butyrylthiocholine chloride as substrate by Ellman's method; format: cell-free
[13] = tested on: BV-2; experiment: Cytotoxicity against mouse BV-2 cells assessed as reduction in cell viability at 10 uM by CCK8 assay; format: toxicity, cell-based; settings: bv-2, 10 µM
[14] = tested on: BV-2; experiment: Anti-inflammatory activity against LPS-stimulated mouse BV-2 cells assessed as inhibition of LPS-induced NO production incubated for 24 hrs in presence of LPS; format: functional, cell-based; settings: dose 1-9 µM
[15] = target: T2, Amine oxidase [flavin-containing] A; experiment: Inhibition of human recombinant MAO-A expressed in baculovirus-infected BTI cells using kynuramine as substrate at 62.5 uM incubated for 30 mins by fluorescence based analysis; settings: 0.5 h
[16] = Permeability of the compound at 100 ug/ml incubated for 18 hrs by PAMPA assay; format: ADME; settings: dose 100 µg/ml, read-out: permeability
[17] = Cytotoxicity against mouse BV-2 cells assessed as cell viability at 30 uM by CCK8 assay; format: toxicity, cell-based; settings: BV-2 cells, read-out: Activity
[18] = target: Amyloid-beta precursor protein (Homo sapiens) (UniProt P05067); experiment: Inhibition of self-induced Amyloid beta (1 to 42) (unknown origin) aggregation at 25 uM incubated for 24 hrs by thioflavin T-based fluorescence analysis
[19] = tested on: PC-12; experiment: Neuroprotective activity against Amyloid beta(25 to 35)-induced cell injury in rat PC12 cells assessed as cell viability at 10 uM pretreated for 2 hrs followed by incubation with Abeta(25 to 35) for 24 hrs by CCK-8 assay (reference value: 41 to 58.6%); format: functional; settings: time 26 hrs, read-out: Activity
[20] = tested on: BV-2; experiment: Anti-inflammatory activity against LPS-stimulated mouse BV-2 cells assessed as inhibition of LPS-induced IL-6 production by measuring IL-6 level at 3 uM incubated for 24 hrs in presence of LPS (reference value: 1503.2 pg/ml); format: functional
[21] = tested on: BV-2; experiment: Anti-inflammatory activity against LPS-stimulated mouse BV-2 cells assessed as inhibition of LPS-induced IL-1 beta production by measuring IL-beta level at 3 uM incubated for 24 hrs in presence of LPS (reference value: 221.3 pg/ml); format: functional
[22] = tested on: BV-2; experiment: Anti-inflammatory activity against LPS-stimulated mouse BV-2 cells assessed as inhibition of LPS-induced IL-1 beta production by measuring IL-beta level at 9 uM incubated for 24 hrs in presence of LPS (reference value: 221.3 pg/ml); format: functional
[23] = tested on: BV-2; experiment: Anti-inflammatory activity against LPS-stimulated mouse BV-2 cells assessed as inhibition of LPS-induced IL-1 beta production by measuring IL-beta level at 1 uM incubated for 24 hrs in presence of LPS (reference value: 221.3 pg/ml); format: functional
[24] = tested on: BV-2; experiment: Anti-inflammatory activity against LPS-stimulated mouse BV-2 cells assessed as inhibition of LPS-induced IL-6 production by measuring IL-6 level at 9 uM incubated for 24 hrs in presence of LPS (reference value: 1503.2 pg/ml); format: functional
[25] = tested on: BV-2; experiment: Anti-inflammatory activity against LPS-stimulated mouse BV-2 cells assessed as inhibition of LPS-induced IL-6 production by measuring IL-6 level at 1 uM incubated for 24 hrs in presence of LPS (reference value: 1503.2 pg/ml); format: functional
[26] = tested on: PC-12; experiment: Neuroprotective activity against Amyloid beta(25 to 35)-induced cell injury in rat PC12 cells assessed as cell viability at 5 uM pretreated for 2 hrs followed by incubation with Abeta(25 to 35) for 24 hrs by CCK-8 assay (reference value: 41 to 58.6%); format: functional; settings: time 26 hrs, read-out: Activity
[27] = tested on: PC-12; experiment: Neuroprotective activity against Amyloid beta(25 to 35)-induced cell injury in rat PC12 cells assessed as cell viability at 20 uM pretreated for 2 hrs followed by incubation with Abeta(25 to 35) for 24 hrs by CCK-8 assay (reference value: 41 to 58.6%); format: functional; settings: time 26 hrs, read-out: Activity
[28] = Metal chelating activity assessed as compound-Cu2+ complex formation by measuring inhibition of Cu2+-induced amyloid beta (1 to 42) aggregation at 25 uM by thioflavin T-based fluorescence analysis
[29] = Metal chelating activity assessed as compound-Cu2+ complex formation by measuring small fiber aggregates incubated for 24 hrs by transmission electron microscopy

Amyloid-beta precursor protein (Homo sapiens), sequence (P05067 whole entry): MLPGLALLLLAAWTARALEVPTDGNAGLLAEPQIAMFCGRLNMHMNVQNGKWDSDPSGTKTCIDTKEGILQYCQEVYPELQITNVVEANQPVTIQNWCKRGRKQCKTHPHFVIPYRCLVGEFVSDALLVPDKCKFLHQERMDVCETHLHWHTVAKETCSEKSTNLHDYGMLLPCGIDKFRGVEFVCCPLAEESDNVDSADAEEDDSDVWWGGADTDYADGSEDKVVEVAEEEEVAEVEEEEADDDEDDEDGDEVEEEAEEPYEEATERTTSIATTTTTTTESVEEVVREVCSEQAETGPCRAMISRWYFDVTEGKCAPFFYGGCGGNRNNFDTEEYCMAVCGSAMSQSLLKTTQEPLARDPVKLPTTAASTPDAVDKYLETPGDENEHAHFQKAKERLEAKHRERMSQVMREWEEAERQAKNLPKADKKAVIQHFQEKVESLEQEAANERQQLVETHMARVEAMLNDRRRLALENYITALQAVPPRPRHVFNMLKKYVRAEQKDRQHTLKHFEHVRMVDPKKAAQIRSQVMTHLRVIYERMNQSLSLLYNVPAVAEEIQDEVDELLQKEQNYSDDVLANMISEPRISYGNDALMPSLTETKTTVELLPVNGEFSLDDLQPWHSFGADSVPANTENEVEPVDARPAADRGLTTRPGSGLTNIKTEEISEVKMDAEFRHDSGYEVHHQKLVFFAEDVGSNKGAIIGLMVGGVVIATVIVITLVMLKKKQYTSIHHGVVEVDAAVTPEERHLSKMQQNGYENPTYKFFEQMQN
Acetylcholinesterase, sequence (O42275 whole entry): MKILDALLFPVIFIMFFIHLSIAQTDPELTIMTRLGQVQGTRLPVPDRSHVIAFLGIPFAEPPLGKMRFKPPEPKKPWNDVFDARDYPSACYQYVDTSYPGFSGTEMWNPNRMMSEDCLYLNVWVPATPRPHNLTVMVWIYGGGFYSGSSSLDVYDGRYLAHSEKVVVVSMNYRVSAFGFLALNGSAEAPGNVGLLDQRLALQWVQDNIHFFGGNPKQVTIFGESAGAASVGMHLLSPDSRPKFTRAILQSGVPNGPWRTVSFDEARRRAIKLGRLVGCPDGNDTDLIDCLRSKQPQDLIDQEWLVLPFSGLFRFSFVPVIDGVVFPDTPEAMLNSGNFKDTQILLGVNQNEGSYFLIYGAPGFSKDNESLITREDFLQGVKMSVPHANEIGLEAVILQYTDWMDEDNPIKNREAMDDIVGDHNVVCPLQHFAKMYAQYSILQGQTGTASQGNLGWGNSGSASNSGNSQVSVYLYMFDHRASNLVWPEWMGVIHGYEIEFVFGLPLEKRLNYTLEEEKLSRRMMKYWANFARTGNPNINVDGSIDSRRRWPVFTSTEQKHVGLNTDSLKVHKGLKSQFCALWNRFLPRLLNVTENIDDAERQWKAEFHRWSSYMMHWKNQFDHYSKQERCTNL
Cholinesterase, sequence (P81908 whole entry): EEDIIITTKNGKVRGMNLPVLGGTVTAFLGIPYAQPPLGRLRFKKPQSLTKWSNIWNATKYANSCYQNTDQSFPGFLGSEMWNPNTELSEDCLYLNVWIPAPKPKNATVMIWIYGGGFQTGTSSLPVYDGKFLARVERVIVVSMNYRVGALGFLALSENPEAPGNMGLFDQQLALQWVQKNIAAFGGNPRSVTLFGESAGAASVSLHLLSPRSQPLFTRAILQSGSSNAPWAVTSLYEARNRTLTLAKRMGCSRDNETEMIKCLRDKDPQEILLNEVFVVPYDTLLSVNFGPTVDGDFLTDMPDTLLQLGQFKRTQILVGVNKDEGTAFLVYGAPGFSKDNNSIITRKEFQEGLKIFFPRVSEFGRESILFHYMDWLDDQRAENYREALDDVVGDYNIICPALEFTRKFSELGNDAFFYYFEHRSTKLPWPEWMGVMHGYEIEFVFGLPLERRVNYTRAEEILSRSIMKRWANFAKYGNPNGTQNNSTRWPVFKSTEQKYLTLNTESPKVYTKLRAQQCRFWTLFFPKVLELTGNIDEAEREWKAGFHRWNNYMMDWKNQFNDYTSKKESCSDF
Acetylcholinesterase (Electrophorus electricus), sequence (O42275 24-633 limits assumed): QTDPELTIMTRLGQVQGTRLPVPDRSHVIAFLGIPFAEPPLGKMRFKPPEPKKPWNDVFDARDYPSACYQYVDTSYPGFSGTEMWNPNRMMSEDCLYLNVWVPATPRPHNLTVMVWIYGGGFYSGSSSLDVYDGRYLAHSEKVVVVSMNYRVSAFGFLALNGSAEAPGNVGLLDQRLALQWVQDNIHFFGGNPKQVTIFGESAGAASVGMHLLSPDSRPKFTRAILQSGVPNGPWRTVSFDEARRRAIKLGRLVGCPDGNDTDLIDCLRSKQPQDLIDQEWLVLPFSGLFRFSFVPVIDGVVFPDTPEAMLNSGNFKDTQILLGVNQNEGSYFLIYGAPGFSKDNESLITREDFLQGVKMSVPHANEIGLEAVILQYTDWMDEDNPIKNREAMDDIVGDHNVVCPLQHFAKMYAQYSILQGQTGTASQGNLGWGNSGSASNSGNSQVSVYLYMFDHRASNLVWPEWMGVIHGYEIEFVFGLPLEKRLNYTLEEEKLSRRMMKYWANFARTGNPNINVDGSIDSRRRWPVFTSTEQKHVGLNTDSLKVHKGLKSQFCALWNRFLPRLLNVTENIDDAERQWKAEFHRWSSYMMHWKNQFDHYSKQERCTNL
Cholinesterase (Equus caballus), sequence (P81908 whole entry): as the sequence (P81908 whole entry) above

## CCN(C)C(=O)Oc1cccc([C@H](C)N(C)C)c1
[1]
  Activity: 81.2%
[2]
  Activity: 94.7%

## O=C(/C=C/c1ccc(Br)cc1OC(F)(F)F)c1ccccc1O
[3]
  IC50: 2.6 µM
[4]
  Ratio IC50: 22.9
[5]
  IC50: 59.3 µM

## CN(C)C(=O)Oc1ccccc1C(=O)/C=C/c1ccc(F)cc1
[3]
  IC50: 2.7 µM
[6]
  Activity: Dose-Dependent Effect
[7]
  Activity: Non-Toxic
[8]
  Ratio IC50: 1.4
[9]
  Activity: Dose-Dependent Effect
[10]
  Activity: Dose-Dependent Effect
[11]
  IC50: 8.7 µM
[12]
  IC50: 6.3 µM
[13]
  Activity: Non-Toxic
[4]
  Ratio IC50: 11.7
[5]
  IC50: 31.5 µM
[14]
  Activity: Dose-Dependent Effect

## COc1ccc2cc(/C=C/C(=O)c3ccccc3O)ccc2c1
[3]
  IC50: 78.4 µM
[15]
  inhibition at 62.5 µM: < 15%

## CCn1cc(C(=O)O)c(=O)c2cc(F)c(N3CCNCC3)cc21 [NORFLOXACIN]
[16]
  Papp at 18 h, 100 ug/ml: 0.21 ×10⁻⁶ cm/s

## O=C(/C=C/c1cccc(O)c1)c1ccccc1O
[3]
  IC50: 1.7 µM
[4]
  Ratio IC50: 29.9
[5]
  IC50: 50.9 µM

## O=C(/C=C/c1c(Br)cccc1Br)c1ccccc1O
[3]
  IC50: 60.3 µM
[15]
  inhibition at 62.5 µM: < 15%

## O=C(/C=C/c1cc2ccccc2c2ccccc12)c1ccccc1O
[3]
  IC50: 76.8 µM
[15]
  inhibition at 62.5 µM: < 15%

## COc1ccc(/C=C/C(=O)c2ccccc2O)cc1
[3]
  IC50: 1.3 µM
[6]
  Activity: Dose-Dependent Effect
[7]
  Activity: Non-Toxic
[9]
  Activity: Dose-Dependent Effect
[10]
  Activity: Dose-Dependent Effect
[17]
  viability at 30 µM: 78.9%
[13]
  Activity: Non-Toxic
[18]
  inhibition: 61.1%
[4]
  Ratio IC50: 40.9
[5]
  IC50: 53.2 µM
[14]
  Activity: Dose-Dependent Effect

## O=C(/C=C/c1ccccc1F)c1ccccc1O
[3]
  IC50: 12.6 µM
[15]
  inhibition at 62.5 µM: < 15%

## CCN(CC)C(=O)Oc1ccccc1C(=O)/C=C/c1ccc(F)cc1
[3]
  IC50: 2.1 µM
[6]
  Activity: Dose-Dependent Effect
[7]
  Activity: Non-Toxic
[8]
  Ratio IC50: 0.59
[9]
  Activity: Dose-Dependent Effect
[10]
  Activity: Dose-Dependent Effect
[11]
  IC50: 11.2 µM
[12]
  IC50: 18.9 µM
[13]
  Activity: Non-Toxic
[4]
  Ratio IC50: 24.9
[5]
  IC50: 52.3 µM
[14]
  Activity: Dose-Dependent Effect

## COc1ccc(Br)cc1/C=C/C(=O)c1ccccc1O
[3]
  IC50: 27.5 µM
[15]
  inhibition at 62.5 µM: < 15%

## O=C(/C=C/c1ccc(Cl)cc1)c1ccccc1O
[3]
  IC50: 10.3 µM
[4]
  Ratio IC50: 7.7
[5]
  IC50: 78.8 µM

## COc1ccccc1/C=C/C(=O)c1ccccc1O
[3]
  IC50: 5.9 µM
[15]
  inhibition at 62.5 µM: < 15%

## O=C(/C=C/c1ccc(O)cc1)c1ccccc1O
[3]
  IC50: 0.8 µM
[19]
  viability at 10 µM: 91%
[7]
  Activity: Non-Toxic
[20]
  Activity: 489.3 pg/mL
[21]
  Activity: 77.6 pg/mL
[22]
  Activity: 50.9 pg/mL
[17]
  viability at 30 µM: 71.5%
[23]
  Activity: 147.6 pg/mL
[24]
  Activity: 337.5 pg/mL
[25]
  Activity: 763.2 pg/mL
[13]
  Activity: Non-Toxic
[26]
  viability at 5 µM: 88.9%
[27]
  viability at 20 µM: 94.6%
[18]
  inhibition: 80.7%
[4]
  Ratio IC50: 82.6
[5]
  IC50: 66.1 µM
[14]
  Activity: Dose-Dependent Effect

## O=C(/C=C/c1ccc2ccccc2c1Br)c1ccccc1O
[3]
  IC50: 2.8 µM
[15]
  inhibition at 62.5 µM: < 15%

## COc1cccc(/C=C/C(=O)c2ccccc2O)c1
[3]
  IC50: 3.4 µM
[4]
  Ratio IC50: 10.5
[5]
  IC50: 35.7 µM

## O=C(/C=C/c1c(F)cccc1Br)c1ccccc1O
[3]
  IC50: 4.7 µM
[15]
  inhibition at 62.5 µM: < 15%

## COc1cc(/C=C/C(=O)CC(=O)/C=C/c2ccc(O)c(OC)c2)ccc1O [CURCUMIN]
[19]
  viability at 10 µM: 76.3%
[7]
  Activity: Non-Toxic
[28]
  inhibition: 53.5%
[26]
  viability at 5 µM: 62.5%
[29]
  Activity: Active
[27]
  viability at 20 µM: 85.5%
